Key:
Assay type in all cases: functional
[1] = Cytotoxicity against Homo sapiens (human) breast cancer cells after 48 hr by SRB assay; conditions: Cancer cell lines; for LC50 (concentration giving 50% net cell kill): pooled result: one value given for 9 cell lines, strains, targets or settings
[2] = Cytotoxicity against Homo sapiens (human) prostate cancer cells after 48 hr by SRB assay; conditions: Cancer cell lines
[3] = Cytotoxicity against Homo sapiens (human) renal cancer cells after 48 hr by SRB assay; conditions: Cancer cell lines
[4] = Cytotoxicity against Homo sapiens (human) ovarian cancer cells after 48 hr by SRB assay; conditions: Cancer cell lines
[5] = Cytotoxicity against Homo sapiens (human) CNS cancer cells after 48 hr by SRB assay; conditions: Cancer cell lines
[6] = Cytotoxicity against Homo sapiens (human) melanoma cellsafter 48 hr by SRB assay; conditions: Melanoma cell
[7] = Cytotoxicity against Homo sapiens (human) colon cancer cells after 48 hr by SRB assay; conditions: Cancer cell lines
[8] = Cytotoxicity against Homo sapiens (human) leukemia cells after 48 hr by SRB assay; conditions: Leukemia cell
[9] = Cytotoxicity against Homo sapiens (human) non-small cell lung cancer cells after 48 hr by SRB assay; conditions: Cancer cell lines
SF-268 = test: Cytotoxicity against Homo sapiens (human) SF268 cells assessed as cellular growth after 48 hr by Alamar blue assay; set-up: concentration or dose not given beside the values
MCF7 = test: Cytotoxicity against Homo sapiens (human) MCF7 cells assessed as cellular growth after 48 hr by Alamar blue assay; set-up: concentration or dose not given beside the values
NCI-H460 = test: Cytotoxicity against Homo sapiens (human) NCI-H460 cells assessed as cellular growth after 48 hr by Alamar blue assay; set-up: concentration or dose not given beside the values

SMILES | GI50 [1] | TGI [1] | LC50 (concentration giving 50% net cell kill) [1] | GI50 [2] | TGI [2] | GI50 [3] | TGI [3] | GI50 [4] | TGI [4] | GI50 [5] | TGI [5] | GI50 [6] | TGI [6] | GI50 [7] | TGI [7] | GI50 [8] | TGI [8] | GI50 [9] | TGI [9] | Activity (SF-268) | other results
O=C1C=CC(=O)C(c2cc(-c3ccc(Cl)cc3)nn2-c2ccccc2)=C1 | 51.5 µM | 69.3 µM | 95.6 µM | 36.5 µM | 66.3 µM | 55.6 µM | 53.3 µM | 67.3 µM | 81.7 µM | 65.3 µM | 55.8 µM | 69.4 µM | 55.4 µM | 42.4 µM | 69.7 µM | 27.8 µM | 87.1 µM | 53.5 µM | 70.1 µM | <32% | Activity (MCF7): <32%; Activity (NCI-H460): <32%
Cc1ccc(-c2cc(C3=CC(=O)C=CC3=O)n(-c3ccc(S(N)(=O)=O)cc3)n2)cc1 | 51.5 µM | 95.5 µM | 99.2 µM | 36.5 µM | 100 µM | 55.6 µM | 86.8 µM | 67.4 µM | 100 µM | 65.3 µM | 100 µM | 69.4 µM | 97.3 µM | 42.4 µM | 88.8 µM | 37.4 µM | 94 µM | 53.5 µM | 100 µM | <32% | Activity (MCF7): <32%; Activity (NCI-H460): <32%
NS(=O)(=O)c1ccc(-n2nc(-c3ccc(Cl)cc3)cc2C2=CC(=O)C=CC2=O)cc1 | 21.9 µM | 62.6 µM | 92.3 µM | 21.6 µM | 71.9 µM | 23.1 µM | 50.2 µM | 26.5 µM | 65.7 µM | 23.7 µM | 53 µM | 26.7 µM | 52.7 µM | 17.6 µM | 37.4 µM | 31.8 µM | 84.6 µM | 23.9 µM | 71.1 µM | <32% | Activity (MCF7): <32%; Activity (NCI-H460): <32%
CC(=O)NS(=O)(=O)c1ccc(-n2nc(-c3ccccc3)cc2C2=CC(=O)C=CC2=O)cc1 | 78.5 µM | 100 µM | 100 µM | 100 µM | 100 µM | 90 µM | 100 µM | 100 µM | 100 µM | 100 µM | 100 µM | 92 µM | 100 µM | 78.4 µM | 100 µM | 57.8 µM | 91.2 µM | 100 µM | 100 µM | <32% | Activity (MCF7): <32%; Activity (NCI-H460): <32%
CC1=NN(c2ccc(Br)cc2)C(=O)C1CC(=O)c1cc(O)ccc1O (configuration not stated) | 19.1 µM | 38.2 µM | 49.6 µM | 42.2 µM | 50 µM | 39.8 µM | 46.1 µM | 34.2 µM | 50 µM | 25.8 µM | 46 µM | 28 µM | 42.6 µM | 36 µM | 45.5 µM | 7.75 µM | 35.8 µM | 38.2 µM | 48.6 µM | <32% | Activity (MCF7): <32%; Activity (NCI-H460): <32%
O=C(CC1C(=O)NN(c2ccc(Br)cc2)C1=O)c1cc(O)ccc1O (configuration not stated) | 16.1 µM | 40.9 µM | 49.9 µM | 22.7 µM | 50 µM | 23.7 µM | 46.9 µM | 26.2 µM | 44.3 µM | 18.8 µM | 40.5 µM | 22 µM | 42.4 µM | 17.7 µM | 43.3 µM | 34.1 µM | 50 µM | 21.7 µM | 48.4 µM | <32% | Activity (MCF7): <32%; Activity (NCI-H460): <32%
Oc1ccc(O)c(-c2cc(-c3ccc(Cl)cc3)nn2-c2ccccc2)c1 | 9.25 µM | 41.1 µM | 76.1 µM | 14.6 µM | 30.7 µM | 8.86 µM | 32 µM | 8.01 µM | 60.4 µM | 17.9 µM | 34.6 µM | 8.79 µM | 32.5 µM | 5.75 µM | 16.8 µM | 3.43 µM | 49.7 µM | 6.85 µM | 33.2 µM | <32% | Activity (MCF7): <32%; Activity (NCI-H460): <32%
NS(=O)(=O)c1ccc(-n2nc(-c3ccccc3)cc2-c2cc(O)ccc2O)cc1 | 83.9 µM | 96 µM | 100 µM | 77.6 µM | 100 µM | 88.1 µM | 99.3 µM | 81.3 µM | 98.2 µM | 86.6 µM | 100 µM | 61.9 µM | 92 µM | 75.7 µM | 100 µM | 49.6 µM | 100 µM | 88.9 µM | 100 µM | <32% | Activity (MCF7): <32%; Activity (NCI-H460): <32%
NS(=O)(=O)c1ccc(-n2nc(-c3ccc(Cl)cc3)cc2-c2cc(O)ccc2O)cc1 | 16.7 µM | 54.5 µM | 76.6 µM | 13.4 µM | 29.8 µM | 12 µM | 35.4 µM | 14.7 µM | 50.9 µM | 17.8 µM | 35.5 µM | 14.6 µM | 38.9 µM | 15.1 µM | 43.1 µM | 5.03 µM | 61.4 µM | 13 µM | 39.1 µM | <32% | Activity (MCF7): <32%; Activity (NCI-H460): <32%
CC(=O)NS(=O)(=O)c1ccc(-n2nc(-c3ccccc3)cc2-c2cc(O)ccc2O)cc1 | 91.3 µM | 100 µM | 100 µM | 100 µM | 100 µM | 78.1 µM | 100 µM | 100 µM | 100 µM | 90.4 µM | 100 µM | 84.8 µM | 100 µM | 78.6 µM | 100 µM | 93.6 µM | 100 µM | 93.9 µM | 100 µM | <32% | Activity (MCF7): <32%; Activity (NCI-H460): <32%
CC(=O)NS(=O)(=O)c1ccc(-n2nc(-c3ccc(Cl)cc3)cc2-c2cc(O)ccc2O)cc1 | 55.3 µM | 82.1 µM | 91.2 µM | 17.7 µM | 38.8 µM | 23.5 µM | 59.8 µM | 44.6 µM | 81.2 µM | 38.5 µM | 93.9 µM | 36.2 µM | 60.1 µM | 37.6 µM | 66.5 µM | 37.4 µM | 92.6 µM | 36.2 µM | 73.7 µM | <32% | Activity (MCF7): <32%; Activity (NCI-H460): <32%

Reference: ChEMBL document CHEMBL3046588, “Design, synthesis, and in vitro evaluation of cytotoxic activity of new substituted 1,4-benzoquinones and hydroquinones” (2007)
